Like-named read-outs stand apart in the source and are kept apart here. No end group written: not given here.
Experiments:
[1] = biological target: T1, TNFα convertase from HL60 cells (Homo sapiens, UniProt P24158); test: 35S-labelled 26 kD TNFα in vitro transcription/translation autoradiographic convertase assay with HL60 convertase (P-30 fraction); type: biochemical; details: 30° C., 1 hour, SDS-PAGE autoradiography
T1 construct: solution containing convertase activity partially purified from uninduced HL60 cells; endogenous in cells
T1 sequence (P24158 28-248): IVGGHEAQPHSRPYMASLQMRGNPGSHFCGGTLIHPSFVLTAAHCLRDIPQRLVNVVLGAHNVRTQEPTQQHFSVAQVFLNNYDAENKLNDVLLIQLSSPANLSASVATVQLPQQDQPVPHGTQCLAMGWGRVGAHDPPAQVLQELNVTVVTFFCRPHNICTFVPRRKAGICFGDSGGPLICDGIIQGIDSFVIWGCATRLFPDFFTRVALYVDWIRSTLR
Excerpt: A preferred assay procedure consists of in vitro transcription/translation to produce the 26 kD molecule, followed by treatment with convertase in the presence or absence of compounds being tested for convertase inhibitory activity. The procedure entails in vitro transcription/translation of the TNFα cDNA present in the pGEM vector. Thus, the sequence was removed from pB11 by Pst I digestion and was inserted into the Pst I site of pGEM-3 (obtainable from Promega Biotec, Madison Wis.). The resulting plasmid, termed pGEM-TNFα14, was amplified in E. coli using established techniques, and plasmid DNA was prepared according to the procedure of Birnboim and Doly, described above. Plasmid DNA was transcribed in vitro by linearizing it with Hind III, and the linearized plasmid templates were used to prepare capped transcripts with T7 RNA polymerase and an in vitro transcription kit supplied by Promega Biotec (Madison, Wis.).
The mRNA produced above was translated in vitro in the presence of ^35S-cysteine to produce ^35S-cysteine-labelled 26 kD TNFα. A rabbit reticulocyte lysate translation kit was used, also supplied by Promega Biotec, and the conditions recommended by the manufacturer were followed.
^35S-cysteine-labelled 26 kD TNFα was used to assay for convertase inhibitors as follows. 25 μl of in vitro translated material was combined with 250 μl of solution containing convertase activity partially purified from uninduced HL60 cells, plus compounds to be assayed for inhibitory activity. The convertase was produced by harvesting 2×10^9 HL60 cells, disrupting the cells, and isolating S-1 (supernatant fluid from a 100,000 ×g centrifugation) and P-30 (pellet from a 30,000×g centrifugation) fractions totalling 18 and 6 ml, respectively. 250 μl of the P-30 fraction was used, although the S-1 fraction may also be used. The assay was carried out at 30° C. for 1 hour, essentially as described above. Next, the reaction mixture was immunoprecipitated with rabbit anti-human TNFα polyclonal antisera (produced from TNFα made in E. coli) and protein A Sepharose, pelleted and washed. […]

[2] = biological target: T2, TNFα convertase/PR-3 (purified native PR-3) (Homo sapiens, UniProt P24158); test: Colorimetric Boc-Ala-ONp assay for convertase inhibition; type: biochemical; details: for inhibition of TNFα convertase/PR-3 activity: 35 μM
T2 construct: from tissue; host or cells: human blood neutrophils
T2 sequence (P24158 28-248): T1 sequence (P24158 28-248)
Procedure: TNFα convertase inhibition can also be measured by a colorimetric assay. In this type of assay, the actual activity of TNFα convertase is measured directly using a colorimetric TNFα convertase substrate. […] One such substrate is Boc-Ala-ONp (Bachem Bioscience, Inc., Philadelphia, Pa.). Other potentially useful substrates can be predicted from the structure of TNFα convertase and other serine proteases. Although the example herein uses purified native PR-3 as the TNFα convertase, it is contemplated that recombinant PR-3 or other TNFα convertases can be used in this assay as well.
Peptide diphenyl phosphonate inhibitors were synthesized and stored as lyophilized solids as described in Oleksyszyn and Powers, Biochem 30:485-493 (1991). Inhibitor solutions (10 mg/ml) were prepared in 100% dimethyl sulfoxide (DMSO) and diluted into aqueous buffers upon initiation of the experiments. 3,4, dichloro-isocoumarin was purchased from CalBiochem. Purified PR-3 (10 μl, 0.1 mg/ml) was mixed with varying concentrations of protease inhibitor ([…]) in 20 mM sodium phosphate buffer, pH 7.0, containing 0.1 M sodium chloride. Aliquots (40 μl) were removed at selected times and diluted 1/10 into a colorimetric assay for convertase, containing 0.5-1 mM Boc-Ala-ONp (prepared fresh from a 50 mM stock in 100% methanol) in 0.02 M sodium phosphate buffer, pH 7.0, 0.1 M sodium chloride. The increase in absorbance was monitored at 347 nm on a Hewlett Packard 8450A spectrophotometer, and using an extinction coefficient of 5.5×10^3 M^−1cm^−1 to calculate units of enzyme activity.
The peptide diphenyl phosphonates were tested in the colorimetric assay described in Example 3, for inhibition of TNFα convertase/PR-3 activity.

[3] = biological target: T3, recombinant PR-3 (rPR-3) (Homo sapiens, UniProt P24158); test: Residual recombinant PR-3 activity with Boc-Ala-ONp substrate; type: biochemical
T3 construct: made in house; host or cells: Sf9 insect cells (baculovirus, pAcC13preproPR-3)
T3 sequence (P24158 28-248 limits assumed): T1 sequence (P24158 28-248)
Procedure: Cytoplasmic anti-neutrophil cytoplasmic antibodies (c-ANCA) are human polyclonal antibodies derived from patients with Wegener's granulomatosis. […] Protein-A-purified human c-ANCA (supplied by Dr. Erik Hack, The Netherlands) was mixed with purified recombinant PR-3 (SEQ ID NO: 23) prepared as described above at various molar ratios of antibody to enzyme, and after incubation for 1 hour at 37° C., residual enzyme activity was measured using the Boc-Ala-ONp substrate as described in Example 4.
The two peptide diphosphonate inhibitors, Boc-Ala-Pro-Val-(OPh)2 and Boc-Val-Pro-Val-(OPh)2, were mixed at various concentrations with 125 ng of rPR-3 (prepared as described above) and incubated for 1 hour at 25° C. The residual enzyme activity was measured using the Boc-Ala-ONp substrate and compared to the same amount of enzyme incubated in the absence of inhibitor. Under these conditions, the Boc-Ala-Pro-Val-(OPh)2 inhibited PR-3 with an IC50 of about 10 μM and the Boc-Val-Pro-Val-(OPh)2 inhibited PR-3 with an IC50 of about 0.4 μM. […] Thus, recombinant PR-3 may be employed in detection of useful inhibitors of native PR-3.

[4] = biological target: T4, PR-3 (Homo sapiens, UniProt P24158); test: Inhibition of PR-3, summary statement of the assays shown below; type: biochemical
T4 sequence (P24158 28-248): T1 sequence (P24158 28-248)
Excerpt: As shown below, PR-3 is inhibited by peptide diphenyl phosphonate inhibitors, elastinal, and dichloro-isocoumarin (DCI). The peptide diphenyl phosphonate inhibitors include Boc-Val-Pro-Val-p(OPh)2 and Boc-Ala-Pro-Val-p(OPh)2 (BOC-butoxycarbonyl). […] “Boc” means N-tert-butoxycarbonyl and “p(OPh)2” represents the diphenyl phosphonate moiety, wherein the formula—COOH group is replaced with P(=0)-(O-phenyl)2. See Oleksyszyn et al., Biochem 30:485 (1991). It will be appreciated that other peptide diphenyl phosphonate molecules may inhibit PR-3. Potential inhibitors may be constructed using the procedures shown in Oleksyszyn et al., supra, using small aliphatic peptides, for an example. Once the potential inhibitors are made, they may be tested in the assays shown below.

[5] = biological target: T5, purified native PR-3 from human neutrophils (Homo sapiens, UniProt P24158); test: 35S-labelled 26 kD TNFα autoradiographic convertase assay with purified native PR-3; type: biochemical; details: PR-3 0.3 μg/ml preincubated 30 minutes
T5 construct: from tissue; host or cells: human blood neutrophils
T5 sequence (P24158 28-248): T1 sequence (P24158 28-248)
Procedure: ^35S-cysteine-labelled 26 kD TNFα was used to assay for convertase inhibitors as follows. 25 μl of in vitro translated material was combined with 250 μl of solution containing convertase activity partially purified from uninduced HL60 cells, plus compounds to be assayed for inhibitory activity. The convertase was produced by harvesting 2×10^9 HL60 cells, disrupting the cells, and isolating S-1 (supernatant fluid from a 100,000 ×g centrifugation) and P-30 (pellet from a 30,000×g centrifugation) fractions totalling 18 and 6 ml, respectively. 250 μl of the P-30 fraction was used, although the S-1 fraction may also be used. The assay was carried out at 30° C. for 1 hour, essentially as described above. Next, the reaction mixture was immunoprecipitated with rabbit anti-human TNFα polyclonal antisera (produced from TNFα made in E. coli) and protein A Sepharose, pelleted and washed. The bound protein was eluted and electrophoresed using SDS-PAGE. The gel was fixed in 40% methanol, 10% acetic acid, soaked in Enlightening (Dupont), dried, and exposed to X-ray film which was subsequently developed.
The above assay was also used with purified native PR-3 from human neutrophils to test a variety of proteinase inhibitors for their ability to inhibit TNFα convertase activity, as shown in FIG. 5. Purified PR-3 (0.3 μg/ml) was preincubated for 30 minutes with the following inhibitors prior to addition of ^35S-labelled 26 kD-TNFα, and then assayed as described above: DCI (45 μM), α-2-macroglobulin (1 mg/ml), PMSF (20 μM), leupeptin (2 μg/ml), EDTA (10 mM), or pepstatin (2 μg/ml).

[6] = biological target: T4, PR-3; details: cited from earlier work

Molecule | inhibition of TNFα convertase/PR-3 activity [2] | inhibition of PR-3 [4] | inhibition of PR-3 [6] | further results
CO[C@@H]1C(=O)N2C(C(=O)N3CCOCC3)=C(COC(C)=O)CS(=O)(=O)[C@H]12 (relative stereo) [(1-((3-((acetyloxyl)-7-methoxy-8-oxy-8-oxo-5-thio-1-azabicyclo [4.2.0]oct-2-en-2-yl)carbonyl)morpholine, S, S-dioxide, (6R-cis)] |  |  |  | inhibition of convertase activity (conversion of 26 kD TNFα) ([1]; 1 mM): inhibits convertase activity
CC(C)C(NC(=O)[C@@H]1CCCN1C(=O)[C@H](C)NC(=O)OC(C)(C)C)P(=O)(Oc1ccccc1)Oc1ccccc1 (stereo partly drawn) [APV, Boc-Ala-Pro-Val-p(OPh)2] | demonstrated inhibitory activity | inhibited |  | IC50 [3]: ~10 µM
CC(NC(=O)OC(C)(C)C)C(=O)NC(CCC(N)=O)C(=O)NC(C)P(=O)(Oc1ccccc1)Oc1ccccc1 (stereo not drawn) [AQA, Boc-Ala-Gln-Ala-p(OPh)2] | marginal, if any inhibition | much less inhibitory activity |  | 
CC(C)CC(NC(=O)OC(C)(C)C)C(=O)NC(C)C(=O)NC(CCC(N)=O)C(=O)NC(C)P(=O)(Oc1ccccc1)Oc1ccccc1 (stereo not drawn) [LAQA, Boc-Leu-Ala-Gln-Ala-p(OPh)2] | marginal, if any inhibition | much less inhibitory activity |  | 
O=S(=O)(F)Cc1ccccc1 [PMSF, phenylmethyl-sulfonyl fluoride] |  |  | inhibited | inhibition of TNFα convertase activity of purified PR-3 ([5]; 20 μM): significant inhibitory activity
CC(C)C(NC(=O)[C@@H]1CCCN1C(=O)[C@@H](NC(=O)OC(C)(C)C)C(C)C)P(=O)(Oc1ccccc1)Oc1ccccc1 (stereo partly drawn) [VPV, Boc-Val-Pro-Val-p(OPh)2] | demonstrated inhibitory activity | inhibited |  | IC50 [3]: ~0.4 µM
CC(C)C[C@H](NC(=O)N[C@H](C(=O)N[C@@H](CCC(N)=O)C(=O)N[C@@H](C)C=O)[C@@H]1CCNC(=N)N1)C(=O)O [elastinal] |  | inhibited |  | inhibition of the convertase (conversion of 26 kD TNFα) ([1]; 5 mg/ml): inhibit the convertase
AQAVRSSS |  |  |  | inhibition of convertase activity ([2]; 50 μM, Boc-Ala-ONp colorimetric assay with PR-3): did not inhibit convertase activity significantly
α1-antitrypsin: protein reported to inhibit PR-3 |  |  | inhibited | 
α-2-macroglobulin: proteinase inhibitor tested against purified PR-3 |  |  | inhibited | inhibition of TNFα convertase activity of purified PR-3 ([5]; 1 mg/ml): significant inhibitory activity
